The subject of data set [1] is SNI rats. Description: Spared nerve injury (SNI) rats, von Frey monofilament test. It is filed as in vivo, rat. The settings on record: for duration of elevated mechanical thresholds: 10 mg/kg P.O. As for the experimental part: FIG. 3B. Mechanical pain threshold assessment (von Frey monofilament test) of SNI rats' left hindpaws. Each SNI rat received either EXAMPLE-106, -107, and -115 (each 30 mg/kg, 1 mL I.P.), or vehicle (1 mL I.P. 2% DMSO in 0.5% HPC). Sham rats also received vehicle I.P. injections. […] The sham-vehicle serves as a positive control. Thermal and mechanical pain responses were measured once every hour for 8 consecutive hours after I.P. treatment (n=8 rats per treatment group).
FIG. 4. Mechanical pain threshold assessment (von Frey monofilament test) of left hindpaws in another cohort of SNI rats. Each SNI rat received either EXAMPLE-128, -130, -132, or Z944 (as a reference compound, each 10 mg/kg, 2 mL oral gavage, P.O.). […] Mechanical pain responses were measured at pre-dosing, 1, 2, 4, and 6 hours post-treatment using von Frey monofilament test (n=8 rats per group).
In additional examples shown here, the analgesic effects were further evaluated in another rat species. Baseline thermal and mechanical thresholds of male rats (Sprague-Dawley rats, 275 g-325 g, Harlan) were taken prior to surgery; baseline thresholds were measured on the rats' left hindpaws. Thirty-two rats underwent the SNI surgery on their left hind leg; 8 rats underwent surgery without injury of the nerves as a sham group. Two weeks post-surgery, the thermal thresholds of each rat were reassessed. […] Each rat received either EXAMPLE-106, -107, -115 (each 30 mg/kg, 1 mL I.P.), or vehicle (2% DMSO in 0.5% HPC). Thermal and mechanical thresholds were measured at 1, 2, 3, 4, 5, 6, 7, and 8 hours post-treatment/dosing. […] The drug actions started around 1 hour post-injection and peaked between 2 and 3 hours, and the drug effects gradually declined to pre-treatment levels over 6-7 hours (FIGS. 3A and B).
In another cohort of SNI rats ((n=8 per group)), mechanical thresholds were measured at pre-dosing, 1, 2, 4, and 6 hours post-treatment using von Frey monofilament test.

For a further data set, the system named is SNL rats. The experiment in a line: Spinal nerve ligation (SNL) rats, von Frey monofilament test. It is filed as in vivo, rat. The settings on record: for order of analgesic efficacy against allodynia: each 30 mg/kg P.O.; for SNL Model Mechanical % of baseline: pain in rats, 30 mg/kg, P.O. How it is done:
FIG. 5A. Mechanical pain threshold assessment (von Frey monofilament test) of spinal nerve ligation (SNL) rats' left hindpaws. Each SNL rat received either EXAMPLE-128, at 3, 10 or 30 mg/kg (2 mL oral gavage, P.O.), or vehicle (2 mL 2% DMSO in 0.5% HPC, P.O.). […] Mechanical pain responses were measured at 1, 2, 4 and 6 hours after treatment (n=8 rats per treatment group).
FIG. 5B. Mechanical pain threshold assessment (von Frey monofilament test) of SNL rats' left hindpaws. In the same cohort of animals, each SNL rat received either EXAMPLE-128, -130, Z944 (as a reference compound, each at 30 mg/kg, 2 mL oral gavage, P.O.), or vehicle (2 mL 2% DMSO in 0.5% HPC, P.O.). The degree of analgesia against allodynia in the order of EXAMPLE-128>Z944>EXAMPLE-130 compared to the […] group. Mechanical pain responses were measured at 1, 2, 4 and 6 hours after treatment (n=8 rats per treatment group).
The spinal nerve ligation (SNL) in rats is another commonly used neuropathic pain model (Kim & Chung, 1992). The analgesic effect of the selected EXAMPLE-128 was tested in this model. Baseline mechanical thresholds on the rats' left hindpaws of male rats (Sprague-Dawley rats, 300 g-350 g, Harlan) were taken using von Frey hair monofilaments prior to surgery. Ligation of the L5 peripheral nerve was made on the left side under anesthesia. Total 32 rats underwent surgery (n=8 rats per treatment group). Ten days post-surgery, approximately 75-85(%) reduction in mechanical pain was observed, confirming the presence of mechanical allodynia in the SNL rats. Each rat received either EXAMPLE-128 (at 3, 10 and 30 mg/kg, each dose in […], P.O.), or vehicle (2% DMSO in 0.5% HPC, […], P.O.). Mechanical thresholds were measured at 1, 2, 4, and 6 hours post-treatment/dosing. […] The drug actions started around 1 hour post-injection and peaked between 1 and 2 hours, and the drug effects gradually declined to pre-treatment levels in 6 hours (FIG. 5A). After the drug had been eliminated, and the thresholds had returned to initial mechanical allodynia, a comparative test of EXAMPLE-128 and -130 vs Z944 (each at 30 mg/kg, P.O.) was conducted in the same cohort of SNL rats. The analgesic efficacy is in the order of EXAMPLE-128>Z944>EXAMPLE-130 (FIG. 5B).

Data set [2] can be described thus: Metabolic stability in human liver microsomes. It counts as in vitro ADME. An excerpt:
(§1) In vitro data of metabolic stability and protein binding as well as in vivo pharmacokinetic data for compounds of the invention can be generated using the techniques disclosed in, e.g., Obach, R. S. et al., J. Pharmacol. Exp. Ther. 283(1): 46-58 (1997), which is hereby incorporated by reference in its entirety. Various biological, pharmacokinetic and other properties of the compounds, including hepatic microsomal stability, determination of metabolites, binding to proteins such as plasma protein binding, and in vivo studies, including single-dose and multi-dose pharmacokinetic studies, can be determined using the protocols described in that publication and the publications cited therein. Other aspects and advantages of the present invention will become apparent from the above detailed description, as illustrated by way of example of the principles of the invention. The scope of the invention is to be defined by the claims appended hereto and their equivalents. Selected pharmacokinetic studies in vitro and in vivo in rats were performed for preferred compounds, for example EXAMPLE-128 and compared with two reference compounds ML218 and Z944 by a contract research organization (BioDuro, Inc., San Diego, US). Tables 3A and 3B summarize some of the in vitro and vivo pharmacodynamic and pharmacokinetic parameters, respectively.

Data set [3] in a line: Plasma protein binding, rat. It counts as in vitro ADME. Conditions: for fraction unbound: read-out: PPB % (Rat) (converted).
From the text: as §1

A further data set in a line: Plasma stability, human. It is filed as in vitro ADME.
From the text: as §1

The nature of another data set: Rat pharmacokinetics. It counts as in vivo. The settings on record: for half-life / AUC / bioavailability: plasma; for AUC: read-out: Rat PK AUCfree; for bioavailability: read-out: Rat PK F (%) bioavailability.
From the text: as §1

The subject of data set [4] is SNI rats. Description: Spared nerve injury (SNI) rats, von Frey monofilament test. The settings on record: pain in rats, 30 mg/kg, P.O. It is filed as in vivo, rat.
The mark [5] stands for this setting: 10 mg/kg oral gavage, P.O., 10 mg/kg.
[6] abbreviates: SNL rats, 3, 10 and 30 mg/kg P.O.
[7] abbreviates: iv, read-out: Plasma t1/2 (h) iv (converted).
Setting [8] is: po, read-out: Plasma t1/2 (h) po (converted).
Setting [9] is: read-out: Human Liver Microsomes Clint (μL/min/mg protein).
Setting [10] is: read-out: Human Liver Microsomes t1/2.

“Also recorded” adds a separate entry of the source. Where two headings read alike, the source gives them in different places.

In the case of `CC(C)(C)NC(=O)CN1CCC2(CC1)CC2NC(=O)c1cc(F)cc(Cl)c1` (single isomer, unassigned) [Example 128, (S)—N-(6-(2-(tert-Butylamino)-2-oxoethyl)-6-azaspiro[2.5]octan-1-yl)-3-chloro-5-fluorobenzamide or (R)—N-(6-(2-(tert-Butylamino)-2-oxoethyl)-6-azaspiro[2.5]octan-1-yl)-3-chloro-5-fluorobenzamide], the “duration of elevated mechanical thresholds” value (“duration” below) with SNI rats [1] is “approximately 4 hours”. For the same compound, in the data set on SNI rats [1] (setting [5]), the “mechanical pain threshold of left hindpaw (allodynia)” value (“mechanical pain threshold” for short) is reported as “elevated mechanical thresholds; also recorded: reduced allodynia”. In addition, in the data set on SNL rats (setting [6]), the “start of drug action post-injection” value is “around 1 hour” and the “time for drug effects to decline to pre-treatment levels” value was 6 h. Further, the “mechanical pain threshold” value in the data set on SNL rats (SNL rats, 3, 10 or 30 mg/kg P.O.) was “elevated mechanical thresholds in a dose-related manner; also recorded: reduced allodynia compared to the SNI-vehicle group in a dose-related manner”. Also, in the data set on SNL rats (SNL rats), the “order of analgesic efficacy against allodynia” value (shortened to “order of analgesic efficacy”) is “EXAMPLE-128>Z944>EXAMPLE-130”. In addition, in the data set on SNL rats, the “SNL Model Mechanical % of baseline” value is listed as 129 ± 28 % of baseline. In addition, in data set [2], the half-life stood at 6.08 h and the microsomal CLint was found to be 1.9 µL/min/mg. In addition, in data set [3], the recovery was determined as 90.4% and the fraction unbound was 0.242. Besides, in the data set “Plasma stability, human”, the “Plasma Stability @ 5 h % (Human)” value is given as 95.7/ %. Also, in “Rat pharmacokinetics”, the “Rat PK AUCtotal (μM*h)” value was 4.1 h/µM, the AUC amounted to 1 µM·h and the bioavailability came to 62%. Besides, the half-life in “Rat pharmacokinetics” (setting [7]) is 3.34 h. The half-life in the data set “Rat pharmacokinetics” (setting [8]) is 3.66 h. Besides, the “SNI-Model Mechanical % of baseline” value with SNI rats [4] was 45 ± 15 % of baseline.
As to `CC(C)(C)NC(=O)CN1CCC2(CC1)C[C@H]2C(=O)Nc1cc(C(F)(F)F)cc(C(F)(F)F)c1` (single isomer, unassigned) [Example 132, (R)—N-(3,5-Bis(trifluoromethyl)phenyl)-6-(2-(tert-butylamino)-2-oxoethyl)-6-azaspiro[2.5]octane-1-carboxamide or (S)—N-(3,5-Bis(trifluoromethyl)phenyl)-6-(2-(tert-butylamino)-2-oxoethyl)-6-azaspiro[2.5]octane-1-carboxamide], the “duration” value in the data set with SNI rats [1] was “approximately 4 hours”. Further, in the data set with SNI rats [1] (setting [5]), the “mechanical pain threshold” value is “elevated mechanical thresholds; also recorded: reduced allodynia”.
With `CC(C)(C)CCN1C[C@@H]2[C@@H](CNC(=O)c3cc(Cl)cc(Cl)c3)[C@@H]2C1` [ML218, 3,5-Dichloro-N-[[(1α,5α,6-exo,6α)-3-(3,3-dimethylbutyl)-3-azabicyclo[3.1.0]hex-6-yl]methyl]benzamide, reference compound], in data set [2] (setting [9]), the microsomal CLint came to 1.1 µL/min/mg. Also, the half-life in data set [2] (setting [10]) turned out to be 10.5 h. Moreover, in data set [3], the recovery was found to be 94.9% and the fraction unbound was 0.108. In addition, the “Plasma Stability @ 5 h % (Human)” value in the data set “Plasma stability, human” is given as 97.9/ %. Further, in “Rat pharmacokinetics”, the “Rat PK AUCtotal (μM*h)” value amounted to 0.071 h/µM, the AUC was 0.007 µM·h and the bioavailability was 28%. Further, the half-life in “Rat pharmacokinetics” (setting [7]) is 236 h. Also, the “SNI-Model Mechanical % of baseline” value in the data set on SNI rats [4] was 45 ± 11 % of baseline.
`CC(C)(C)NC(=O)CN1CCC(CNC(=O)c2cc(F)cc(Cl)c2)CC1` [Z944, reference compound]: the “duration” value in the data set with SNI rats [1] is given as “approximately 4 hours”. Also, the “mechanical pain threshold” value in the data set with SNI rats [1] (setting [5]) is reported as “elevated mechanical thresholds; also recorded: reduced allodynia”. Besides, in the data set on SNL rats (SNL rats), the “order of analgesic efficacy” value was “EXAMPLE-128>Z944>EXAMPLE-130”. The “SNL Model Mechanical % of baseline” value in the data set on SNL rats was 94 ± 38 % of baseline. Moreover, the microsomal CLint in data set [2] (setting [9]) was found to be 5.5 µL/min/mg. For the same compound, the half-life in data set [2] (setting [10]) was 2.1 h. In data set [3], the recovery is 91.1% and the fraction unbound is 0.287. For the same compound, the “Plasma Stability @ 5 h % (Human)” value in the data set “Plasma stability, human” is 100/ %. In addition, in the data set “Rat pharmacokinetics”, the “Rat PK AUCtotal (μM*h)” value was 0.51 h/µM, the AUC worked out at 0.14 µM·h and the bioavailability was found to be 55%. Further, the half-life in “Rat pharmacokinetics” (setting [7]) was 1.5 h. Further, the half-life in “Rat pharmacokinetics” (setting [8]) is 2.26 h. In addition, the “SNI-Model Mechanical % of baseline” value with SNI rats [4] is listed as 28 ± 18 % of baseline.
For `CC(C)(C)NC(=O)CN1CCC2(CC1)C[C@H]2NC(=O)c1cc(F)cc(C(F)(F)F)c1` (single isomer, unassigned) [Example 130, (R)—N-(6-(2-(tert-Butylamino)-2-oxoethyl)-6-azaspiro[2.5]octan-1-yl)-3-fluoro-5-(trifluoromethyl)benzamide or (S)—N-(6-(2-(tert-Butylamino)-2-oxoethyl)-6-azaspiro[2.5]octan-1-yl)-3-fluoro-5-(trifluoromethyl)benzamide], in the data set on SNI rats [1], the “duration” value is reported as “approximately 4 hours”. The “mechanical pain threshold” value in the data set on SNI rats [1] (setting [5]) is recorded as “elevated mechanical thresholds; also recorded: reduced allodynia”. In addition, the “order of analgesic efficacy” value in the data set with SNL rats (SNL rats) is recorded as “EXAMPLE-128>Z944>EXAMPLE-130”.
For the compound `O=C(Nc1nnc(-c2ccccc2)o1)c1ccc(Cl)s1` [Example 115, 5-Chloro-N-(5-phenyl-1,3,4-oxadiazol-2-yl)thiophene-2-carboxamide], the “start of drug action post-injection” value in the data set on SNI rats [1] (30 mg/kg I.P., thermal and mechanical thresholds) was “around 1 hour”. Moreover, the “mechanical pain threshold” value in the data set with SNI rats [1] (30 mg/kg, 1 mL I.P.) was “elevated both thermal and mechanical thresholds; also recorded: reduced allodynia”.
